In patent publication US11021493B2, “1,4-thiazine dioxide and 1,2,4-thiadiazine dioxide derivatives as beta-secretase inhibitors and methods of use” (AMGEN INC., priority 2016, dated 2021) one finds IC50 data, which are given here for 19 compounds.

As usually defined, the IC50 is the midpoint of a concentration-inhibition curve.

The target of assay [1] is human recombinant BACE2 (Homo sapiens (Human), UniProt Q9Y5Z0). Description: In vitro enzymatic BACE2 FRET assay. It is filed as biochemical. The conditions noted are these: read-out: BACE2 Enzyme IC50.
Sequence of human recombinant BACE2 (Q9Y5Z0 63-518): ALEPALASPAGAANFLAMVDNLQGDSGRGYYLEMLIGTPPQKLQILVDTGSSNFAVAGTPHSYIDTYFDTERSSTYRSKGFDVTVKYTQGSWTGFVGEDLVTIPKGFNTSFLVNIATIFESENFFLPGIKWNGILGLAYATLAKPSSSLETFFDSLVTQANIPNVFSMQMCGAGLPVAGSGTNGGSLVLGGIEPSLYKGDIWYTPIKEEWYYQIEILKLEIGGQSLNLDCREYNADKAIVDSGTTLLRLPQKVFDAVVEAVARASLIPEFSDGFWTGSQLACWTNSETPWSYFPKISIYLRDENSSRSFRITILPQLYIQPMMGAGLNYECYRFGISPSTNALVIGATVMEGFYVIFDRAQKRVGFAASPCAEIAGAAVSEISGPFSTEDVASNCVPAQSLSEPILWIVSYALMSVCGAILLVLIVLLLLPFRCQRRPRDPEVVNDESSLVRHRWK
In assay [2] the target is T1, BACE1 (Homo sapiens (Human), UniProt P56817). Put plainly: In vitro enzymatic BACE1 FRET assay. It is filed as biochemical. The conditions noted are these: read-out: BACE1 Enzyme IC50.
Target sequence in this assay (P56817 46-501): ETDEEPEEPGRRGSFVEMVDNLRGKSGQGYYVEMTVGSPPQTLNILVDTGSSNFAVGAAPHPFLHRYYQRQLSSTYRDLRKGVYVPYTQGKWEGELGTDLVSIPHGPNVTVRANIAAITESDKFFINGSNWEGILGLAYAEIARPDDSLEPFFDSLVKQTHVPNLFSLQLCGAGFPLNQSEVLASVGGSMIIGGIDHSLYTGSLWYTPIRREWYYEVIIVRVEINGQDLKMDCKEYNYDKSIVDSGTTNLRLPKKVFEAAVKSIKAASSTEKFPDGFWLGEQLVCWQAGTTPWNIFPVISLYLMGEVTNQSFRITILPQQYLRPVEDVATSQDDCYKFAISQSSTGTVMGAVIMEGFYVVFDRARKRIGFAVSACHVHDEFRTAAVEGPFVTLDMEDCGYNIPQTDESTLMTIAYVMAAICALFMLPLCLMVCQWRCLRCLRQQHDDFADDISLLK
Assay [3] deals with T1, BACE1. Put plainly: In vitro BACE1 cell-based assay (Aβ40 in conditioned medium of cells stably expressing APP, HTRF). The conditions noted are these: Aβ40 in conditioned media after 24 h incubation. For orientation: In TR-FRET formats the signal depends on donor and acceptor labels being close together.
Target sequence in this assay (P56817 46-501, species assumed): as the sequence (P56817 46-501) above
The target of assay [4] is Cathepsin D (CatD) (Homo sapiens (Human), UniProt P07339). Put plainly: In vitro enzymatic Cathepsin D (CatD) FRET assay. Type of assay: biochemical. The conditions noted are these: read-out: Cat D Enzyme IC50.
Sequence of Cathepsin D (CatD) (P07339 65-412, species assumed): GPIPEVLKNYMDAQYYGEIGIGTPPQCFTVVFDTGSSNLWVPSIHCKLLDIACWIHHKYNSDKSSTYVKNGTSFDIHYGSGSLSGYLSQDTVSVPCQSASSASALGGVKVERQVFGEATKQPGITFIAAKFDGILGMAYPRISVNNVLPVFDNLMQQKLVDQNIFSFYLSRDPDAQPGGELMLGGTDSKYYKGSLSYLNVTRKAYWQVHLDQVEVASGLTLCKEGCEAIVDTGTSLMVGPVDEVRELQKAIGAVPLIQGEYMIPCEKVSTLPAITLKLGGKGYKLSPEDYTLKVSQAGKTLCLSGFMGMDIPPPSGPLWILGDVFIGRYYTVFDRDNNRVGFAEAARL

On to `Cc1nnc(COc2cnc(/C(F)=C/c3ccc(F)c([C@]4(C)CS(=O)(=O)N(C)C(N)=N4)c3)cn2)o1` [Example 173, (R,Z)-3-amino-5-(2-fluoro-5-(2-fluoro-2-(5-((5-methyl-1,3,4-oxadiazol-2-yl)methoxy)pyrazin-2-yl)vinyl)phenyl)-2,5-dimethyl-5,6-dihydro-2H-1,2,4-thiadiazine 1,1-dioxide], for which the IC50 in assay [1] turned out to be 103 nM; in assay [2], 7 nM; in assay [3], 9 nM; in assay [4] it was 78100 nM.

As for `Cc1noc(COc2cnc(/C(F)=C/c3ccc(F)c([C@]4(C)CS(=O)(=O)C(C)(C)C(N)=N4)c3)cn2)n1` [Example 175, (R,Z)-5-amino-3-(2-fluoro-5-(2-fluoro-2-(5-((3-methyl-1,2,4-oxadiazol-5-yl)methoxy)pyrazin-2-yl)vinyl)phenyl)-3,6,6-trimethyl-3,6-dihydro-2H-1,4-thiazine 1,1-dioxide], the IC50 worked out at 225 nM in assay [1], 88 nM in assay [2], 53 nM in assay [3] and 124000 nM in assay [4].

For `Cc1nnc(COc2cnc(/C(F)=C/c3ccc(F)c([C@]4(C)CS(=O)(=O)C(C)(C)C(N)=N4)c3)cn2)o1` [Example 176, (R,Z)-5-amino-3-(2-fluoro-5-(2-fluoro-2-(5-((5-methyl-1,3,4-oxadiazol-2-yl)methoxy)pyrazin-2-yl)vinyl)phenyl)-3,6,6-trimethyl-3,6-dihydro-2H-1,4-thiazine 1,1-dioxide], the IC50 in assay [1] was determined as 409 nM; in assay [2] it was 111 nM; in assay [3], 56 nM; in assay [4] it was 148000 nM.

Turning to `CN1C(N)=N[C@](C)(c2cc(/C=C(\F)c3cnc(OCC4COC4)cn3)ccc2F)CS1(=O)=O` [Example 179, (R,Z)-3-amino-5-(2-fluoro-5-(2-fluoro-2-(5-(oxetan-3-ylmethoxy)pyrazin-2-yl)vinyl)phenyl)-2,5-dimethyl-5,6-dihydro-2H-1,2,4-thiadiazine 1,1-dioxide], the IC50 is 217 nM in assay [1], 176 nM in assay [2], 120 nM in assay [3] and 43000 nM in assay [4].

On to `CN1C(N)=N[C@](C)(c2cc(/C=C(\F)c3ccc(C#N)cn3)ccc2F)C(C)(C)S1(=O)=O` [Example 180, (R,Z)-6-(2-(3-(3-amino-2,5,6,6-tetramethyl-1,1-dioxido-5,6-dihydro-2H-1,2,4-thiadiazin-5-yl)-4-fluorophenyl)-1-fluorovinyl)nicotinonitrile], for which the IC50 is 75 nM in assay [1], 7 nM in assay [2], 26 nM in assay [3] and 93700 nM in assay [4].

As to `CN1C(N)=N[C@](C)(c2cc(/C=C(\F)c3cnc(Cl)cn3)ccc2F)C(C)(C)S1(=O)=O` [Example 182, (R,Z)-3-amino-5-(5-(2-(5-chloropyrazin-2-yl)-2-fluorovinyl)-2-fluorophenyl)-2,5,6,6-tetramethyl-5,6-dihydro-2H-1,2,4-thiadiazine 1,1-dioxide], the IC50 worked out at 76 nM in assay [1], 39 nM in assay [2], 318 nM in assay [3] and 217000 nM in assay [4].

As for `CC1(C)C(N)=N[C@](C)(c2cc(/C=C(\F)c3cc4c(cn3)OCCO4)ccc2F)CS1(=O)=O` [Example 184, (R,Z)-5-amino-3-(5-(2-(2,3-dihydro-[1,4]dioxino[2,3-c]pyridin-7-yl)-2-fluorovinyl)-2-fluorophenyl)-3,6,6-trimethyl-3,6-dihydro-2H-1,4-thiazine 1,1-dioxide], the half-inhibitory concentration (IC50) in assay [1] came to 790 nM; in assay [2] it was 296 nM; in assay [3] it was 277 nM; in assay [4], 335000 nM.

For `CC#CCOc1cnc(/C(F)=C/c2ccc(F)c([C@@]3(C)N=C(N)N(C)S(=O)(=O)C3(C)C)c2)cn1` [Example 185, (R,Z)-3-amino-5-(5-(2-(5-(but-2-yn-1-yloxy)pyrazin-2-yl)-2-fluorovinyl)-2-fluorophenyl)-2,5,6,6-tetramethyl-5,6-dihydro-2H-1,2,4-thiadiazine 1,1-dioxide], the half-inhibitory concentration (IC50) in assay [1] is 159 nM; in assay [2] it was 2 nM; in assay [3], 5 nM; in assay [4] it was 259000 nM.

`CN1C(N)=N[C@](C)(c2cc(/C=C(\F)c3cc4c(cn3)OCCO4)ccc2F)CS1(=O)=O` [Example 187, (R,Z)-3-amino-5-(5-(2-(2,3-dihydro-[1,4]dioxino[2,3-c]pyridin-7-yl)-2-fluorovinyl)-2-fluorophenyl)-2,5-dimethyl-5,6-dihydro-2H-1,2,4-thiadiazine 1,1-dioxide]: the IC50 in assay [1] was 78 nM; in assay [2], 172 nM; in assay [3], 108 nM; in assay [4] it was 165000 nM.

Take `CC1(C)C(N)=N[C@](CF)(c2cc(/C=C(\F)c3ccc(C#N)cn3)ccc2F)CS1(=O)=O` [Example 188, (S,Z)-6-(2-(3-(5-amino-3-(fluoromethyl)-6,6-dimethyl-1,1-dioxido-3,6-dihydro-2H-1,4-thiazin-3-yl)-4-fluorophenyl)-1-fluorovinyl)nicotinonitrile]: the 50% inhibitory concentration (IC50) in assay [1] was 57 nM; in assay [2], 13 nM; in assay [3], 222 nM; in assay [4], 155000 nM.

For `CC1(C)C(N)=N[C@](CF)(c2cc(/C=C(\F)c3cnc(Cl)cn3)ccc2F)CS1(=O)=O` [Example 189, (S,Z)-5-amino-3-(5-(2-(5-chloropyrazin-2-yl)-2-fluorovinyl)-2-fluorophenyl)-3-(fluoromethyl)-6,6-dimethyl-3,6-dihydro-2H-1,4-thiazine 1,1-dioxide], the half-maximal inhibitory concentration (IC50) in assay [1] was determined as 59 nM; in assay [2], 60 nM; in assay [3], 2220 nM; in assay [4], 61800 nM.

For `C#CCOc1cnc(/C(F)=C/c2ccc(F)c([C@]3(CF)CS(=O)(=O)C(C)(C)C(N)=N3)c2)cn1` [Example 190, (S,Z)-5-amino-3-(2-fluoro-5-(2-fluoro-2-(5-(prop-2-yn-1-yloxy)pyrazin-2-yl)vinyl)phenyl)-3-(fluoromethyl)-6,6-dimethyl-3,6-dihydro-2H-1,4-thiazine 1,1-dioxide], the IC50 in assay [1] is 274 nM; in assay [2] it was 6 nM; in assay [3], 74 nM; in assay [4], 104000 nM.

As for `CC1(C)C(N)=N[C@](C)(c2cc(/C=C(\F)c3cnc(Cl)cn3)ccc2F)C(F)(F)S1(=O)=O` [Example 191, (R,Z)-5-amino-3-(5-(2-(5-chloropyrazin-2-yl)-2-fluorovinyl)-2-fluorophenyl)-2,2-difluoro-3,6,6-trimethyl-3,6-dihydro-2H-1,4-thiazine 1,1-dioxide], the IC50 in assay [1] was 52 nM; in assay [2], 128 nM; in assay [3] it was 5090 nM; in assay [4], 62200 nM.

In the case of `CC1(C)C(N)=N[C@](C)(c2cc(/C=C(\F)c3ccc(C#N)cn3)cc(F)c2F)CS1(=O)=O` [Example 192, (R,Z)-6-(2-(3-(5-amino-3,6,6-trimethyl-1,1-dioxido-3,6-dihydro-2H-1,4-thiazin-3-yl)-4,5-difluorophenyl)-1-fluorovinyl)nicotinonitrile], the 50% inhibitory concentration (IC50) in assay [1] was 46 nM; in assay [2], 12 nM; in assay [3] it was 35 nM; in assay [4], 76100 nM.

For `CC#CCOc1cnc(/C(F)=C/c2ccc(F)c([C@]3(CF)CS(=O)(=O)C(C)(C)C(N)=N3)c2)cn1` [Example 194, (S,Z)-5-amino-3-(5-(2-(5-(but-2-yn-1-yloxy)pyrazin-2-yl)-2-fluorovinyl)-2-fluorophenyl)-3-(fluoromethyl)-6,6-dimethyl-3,6-dihydro-2H-1,4-thiazine 1,1-dioxide], the IC50 was 181 nM in assay [1], 7 nM in assay [2], 55 nM in assay [3] and 49400 nM in assay [4].

As for `C#C[C@H](C)Oc1cnc(/C(F)=C/c2ccc(F)c([C@]3(CF)CS(=O)(=O)C(C)(C)C(N)=N3)c2)cn1` [Example 195, (S)-5-amino-3-(5-((Z)-2-(5-((S)-but-3-yn-2-yloxy)pyrazin-2-yl)-2-fluorovinyl)-2-fluorophenyl)-3-(fluoromethyl)-6,6-dimethyl-3,6-dihydro-2H-1,4-thiazine 1,1-dioxide], the half-inhibitory concentration (IC50) in assay [1] was determined as 523 nM; in assay [2], 11 nM; in assay [3] it was 188 nM; in assay [4], 64900 nM.

As to `CN1C(N)=N[C@](C)(c2cc(/C=C(\F)c3ccc4c(c3)OCCO4)ccc2F)CS1(=O)=O` [Example 196, (R,Z)-3-amino-5-(5-(2-(2,3-dihydrobenzo[b][1,4]dioxin-6-yl)-2-fluorovinyl)-2-fluorophenyl)-2,5-dimethyl-5,6-dihydro-2H-1,2,4-thiadiazine 1,1-dioxide], the concentration for half-maximal inhibition (IC50) was determined as 157 nM in assay [1], 583 nM in assay [2], 1080 nM in assay [3] and 56100 nM in assay [4].

On to `CC1(C)C(N)=N[C@](C)(c2cc(/C=C(\F)c3ccc(C#N)cn3)cnc2F)CS1(=O)=O` [Example 197, (R,Z)-6-(2-(5-(5-amino-3,6,6-trimethyl-1,1-dioxido-3,6-dihydro-2H-1,4-thiazin-3-yl)-6-fluoropyridin-3-yl)-1-fluorovinyl)nicotinonitrile], for which the IC50 in assay [1] was 87 nM; in assay [2], 33 nM; in assay [3] it was 52 nM; in assay [4] it was 81300 nM.

Regarding `CC1(C)C(N)=N[C@](C)(c2cc(/C=C(\F)c3cnc(Cl)cn3)cnc2F)CS1(=O)=O` [Example 203, (R,Z)-5-amino-3-(5-(2-(5-chloropyrazin-2-yl)-2-fluorovinyl)-2-fluoropyridin-3-yl)-3,6,6-trimethyl-3,6-dihydro-2H-1,4-thiazine 1,1-dioxide], the concentration for half-maximal inhibition (IC50) came out at 56 nM in assay [1], 125 nM in assay [2], 196 nM in assay [3] and 85400 nM in assay [4].
